As usually defined, the Kd is the concentration at which binding is half-saturated.

Results on 1 compound are retold here after PMC6273746, “Molecular Mechanism of the Flavonoid Natural Product Dryocrassin ABBA against Staphylococcus aureus Sortase A” (Molecules, 2016).

Type in all cases: binding
The target of assay [1] is T1, sortase A (SrtA), WT-SrtA (Staphylococcus aureus, UniProt Q2FV99).
T1 construct: SrtA△N59, recombinant, GST tag cleaved
Description: fluorescence quenching (KA); also FRET inhibition of purified SrtA, IC50 […].

The target in assay [2] is T2, sortase A (SrtA), V168A-SrtA (Staphylococcus aureus, UniProt Q2FV99, V168A).
T2 construct: SrtA△N59, recombinant, GST tag cleaved
Kind of assay: fluorescence quenching (KA); reduced inhibition versus WT in FRET assay at […].

The target in assay [3] is T3, sortase A (SrtA), V166A-SrtA (Staphylococcus aureus, UniProt Q2FV99, V166A).
T3 construct: SrtA△N59, recombinant, GST tag cleaved
The description is as above.

Turning to `CCCC(=O)c1c(O)c(CC2=C(O)C(C)(C)C(=O)C(C(C)=O)=C2O)c(O)c(Cc2c(O)c(CC3=C(O)C(C)(C)C(=O)C(C(C)=O)=C3O)c(O)c(C(=O)CCC)c2O)c1O` [ABBA, dryocrassin ABBA], the Kd in assay [1] was 2180 nM; in assay [2] it was 2790 nM; in assay [3] it was 2300 nM.
